Source: patent US20230190643A1, “IMPLANT FOR TREATMENT OF AN OCULAR CONDITION” (Allergan, Inc., priority 2015, published 2023)

Key:
[1] = Impact of gamma irradiation (46 kGy) on difluprednate assay of implant formulations; type: physicochemical
Procedure: Terminal moist heat sterilization is not a viable method due to the fact that ENV905 is a solid dosage form designed to disintegrate in aqueous environments. Therefore, studies to evaluate gamma irradiation were conducted on early ENV905 formulations to determine if ionizing radiation was a viable option for a terminally sterilized drug product. ENV905 implants were exposed to gamma irradiation with a dose of 46 kGy per ISO 11137-2:2012 (Sterilization of Health Care Products—Radiation—Part 2: Establishing the Sterilization Dose). The implant formulations used for these studies consisted of a blend of difluprednate and PEGs.
Implants were individually packaged in HPLC vials with air headspace and polytetrafluoroethylene (PTFE)-lined screw caps. Ten individual implants (n=10) were tested for difluprednate assay.

Ames test = settings: cited from earlier work
GC receptor = biological target: T1, GC receptor (Homo sapiens, UniProt P04150); settings: GC receptor-binding (Tajika 2011b); cited from earlier work
T1 sequence (P04150 1-777): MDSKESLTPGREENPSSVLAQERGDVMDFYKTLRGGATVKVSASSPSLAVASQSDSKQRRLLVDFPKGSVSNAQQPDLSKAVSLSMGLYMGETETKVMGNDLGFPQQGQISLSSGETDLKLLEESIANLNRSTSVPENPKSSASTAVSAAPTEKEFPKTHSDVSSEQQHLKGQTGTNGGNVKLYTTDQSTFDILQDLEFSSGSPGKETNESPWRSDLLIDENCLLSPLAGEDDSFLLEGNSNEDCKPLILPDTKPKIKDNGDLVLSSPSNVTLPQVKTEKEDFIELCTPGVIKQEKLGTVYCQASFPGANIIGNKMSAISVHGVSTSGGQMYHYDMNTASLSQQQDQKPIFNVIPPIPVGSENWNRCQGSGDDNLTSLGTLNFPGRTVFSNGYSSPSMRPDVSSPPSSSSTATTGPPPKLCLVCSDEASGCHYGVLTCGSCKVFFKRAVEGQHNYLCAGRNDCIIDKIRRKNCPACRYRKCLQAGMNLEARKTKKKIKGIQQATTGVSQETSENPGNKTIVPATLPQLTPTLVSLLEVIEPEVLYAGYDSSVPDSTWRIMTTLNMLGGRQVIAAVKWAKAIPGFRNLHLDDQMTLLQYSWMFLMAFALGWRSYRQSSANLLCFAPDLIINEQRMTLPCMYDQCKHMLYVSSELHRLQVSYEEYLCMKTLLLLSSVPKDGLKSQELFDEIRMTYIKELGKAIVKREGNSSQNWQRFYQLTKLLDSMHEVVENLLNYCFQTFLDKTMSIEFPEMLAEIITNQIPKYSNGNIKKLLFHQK

rabbits = settings: subcutaneous during organogenesis, cited from earlier work
male and female rats = settings: subcutaneous up to 10 μg/kg/day prior to and during mating; cited from earlier work
CHL/IU = settings: cited from earlier work
rodents and non-rodents = settings: consistent between species; cited from earlier work
mice = settings: cited from earlier work

| Structure (SMILES) | Degradation ([1]; Radiation Dose 46 kGy) | Difluprednate Assay ([1]; Radiation Dose 46 kGy) | Difluprednate Assay ([1]; Radiation Dose None) | genotoxicity in vitro in the Ames test (Ames test) | Ki (GC receptor) | embryotoxicity and teratogenicity (rabbits; 1-10 μg/kg/day) | NOEL for embryotoxic and teratogenic effects (rabbits) | teratogenic dose (rabbits) | fertility (male and female rats) | genotoxicity in cultured mammalian cells CHL/IU (CHL/IU) | no-observed-effect-level (NOEL), subchronic and chronic toxicity tests (rodents and non-rodents) | in vivo micronucleus test (mice) |
| --- | --- | --- | --- | --- | --- | --- | --- | --- | --- | --- | --- | --- |
| CCCC(=O)O[C@]1(C(=O)COC(C)=O)CC[C@H]2[C@@H]3C[C@H](F)C4=CC(=O)C=C[C@]4(C)[C@@]3(F)[C@@H](O)C[C@@]21C [Difluprednate (DFBA), Difluprednate] | 0.85 % Area | 97.13 % Area | 97.98 % Area | not genotoxic | 0.78 nM | embryotoxic (decrease in embryonic body weight and a delay in embryonic ossification) and teratogenic (cleft palate and skeletal anomalies) | 1 µg/kg/day | 10 µg/kg/day | did not impair fertility in either gender | not genotoxic | 1 to 1.25 µg/kg/day | negative |
| CCCC(=O)O[C@]1(C(=O)CO)CC[C@H]2[C@@H]3C[C@H](F)C4=CC(=O)C=C[C@]4(C)[C@@]3(F)[C@@H](O)C[C@@]21C [Desacetyl Difluprednate (DFB), 6α,9-difluoroprednisolone 17-butyrate] |  |  |  |  | 0.061 nM |  |  |  |  |  |  |  |
